Experimental data published in the SangsterLogP compilation.

Question: For `Cc1cc(Cl)ccc1/N=C/N(C)C`, which logP is on record?
Answer: Its logP is 2.89.

Question: Which logP does the source give for `CCOP(=S)(OCC)Oc1ccc(N)cc1` here?
Answer: The logP was 2.6.

Question: With `CCOP(=S)(OCC)Oc1ccc(S(C)(=O)=O)cc1` as the compound, how does the logP read?
Answer: Its logP is 2.56.

Question: With `CCOP(=S)(OCC)Oc1ccc(S(C)=O)cc1` (centres undefined) as the compound, how does the logP read?
Answer: Its logP is 2.23.

Question: Which logP does the source give for `COP(=S)(OC)SCSc1ccc(Cl)cc1` here?
Answer: Its logP is 4.82.

Question: With `CCOP(=S)(OCC)Oc1cc(Cl)c(Br)cc1Cl` as the compound, how does the logP read?
Answer: The logP was 5.68.

Question: With `CNC(=O)Oc1ccc(N(C)C)c(C)c1` as the compound, how does the logD (pH 9.0) read?
Answer: Its logD is 1.9.

Question: Which logP does the source give for `CCOP(=S)(OCC)Oc1cc(C)nc(C(C)C)n1` here?
Answer: The logP was 3.81.

Question: With `CCOP(=O)(OCC)Oc1cc(C)nc(C(C)C)n1` as the compound, how does the logP read?
Answer: Its logP is 2.07.

Question: For `COP(=S)(OC)SCN1C(=O)c2ccccc2C1=O`, which logP is on record?
Answer: The logP was 2.78.

Question: With `CCOP(=S)(OCC)SCCS(=O)(=O)CC` as the compound, how does the logP read?
Answer: The logP was 1.87.

Question: For `COP(=S)(Oc1cc(Cl)c(Br)cc1Cl)c1ccccc1` (centres undefined), which logP is on record?
Answer: Its logP is 5.88.

Question: Which logP does the source give for `CCOP(=S)(OCC)Oc1cc(C)nc(N(CC)CC)n1` here?
Answer: The logP was 4.85.

Question: For `CCOP(=O)(OCC)SCS(=O)(=O)CC`, which logP is on record?
Answer: The logP was 1.98.

Question: With `COP(=O)(Oc1cc(Cl)c(Br)cc1Cl)c1ccccc1` (centres undefined) as the compound, how does the logP read?
Answer: Its logP is 4.58.

Question: With `CCOP(=S)(OCC)Oc1ccc(SC)cc1` as the compound, how does the logP read?
Answer: The logP was 4.16.

Question: For `COP(=S)(OC)Oc1cc(Cl)c(Br)cc1Cl`, which logP is on record?
Answer: Its logP is 4.88.

Question: For `COP(=O)(OC)SCn1nnc2ccccc2c1=O`, which logP is on record?
Answer: The logP was 0.78.

Question: For `CCOP(=O)(OCC)Oc1ccc([N+](=O)[O-])cc1`, which logP is on record?
Answer: The logP was 1.98.
